Measured values as given in patent US20100314316A1, “HALOGENATED AMIDES AS BIOCIDES FOR TREATING WATER SYSTEMS CONTAINING REDUCING AGENTS” (priority 2009, published 2010).

How the values were obtained:
Type in all cases: cell-based
[1] = tested on: bacteria isolated from paper mill white water; test: Biocidal efficacy of seven biocides in artificial white water; conditions: artificial white water pH 8.1, 37 C
Experimental: Sterile artificial White Water (111 mg of CaCl2, 60 mg of MgSO4, 168 mg of NaHCO3, 140 mg of K2HPO4, 480 mg of NH4Cl, 1.04 mg of FeCl3.6H2O, 1.48 mg of Na2EDTA, 3000 mg of Dextrose, 10 mg of Yeast Extract, in 1 L water, pH 8.1) is contaminated with field isolated bacteria at a concentration of approximately 10^7 CFU/mL. The aliquots of this contaminated water are then treated with eight dosage levels of DBMAL and six other commonly used biocides in paper mill white water application. The same aliquots of the contaminated water without biocide are used as controls. After incubating at 37° C. for 4 hours, the valid bacteria in the aliquots are enumerated using a serial dilution method and the bacterial log10 reduction is calculated by comparing the valid bacteria number of biocide treated water aliquots to that of controls. Table 4 compares the efficacy of the seven biocides, expressed by bacterial log10 reduction.

[2] = tested on: field isolated bacteria; test: Resistance of biocide to sulfite deactivation: biocide pretreated with sulfite in paper mill white water before efficacy testing; conditions: for Decrease of efficacy due to sulfite pretreatment (bacterial log10 reduction): 80 ppm sulfite, 4 hrs; for Bacterial log10 reduction after treatment of biocide for 4 hrs: white water about pH 7.5, 37 C
Experimental: 50 ppm to 80 ppm sulfite is representative of a sulfite level for pulp and paper applications. The same white water sample without sulfite is used as none sulfite comparison and the same whitewater samples containing no biocide and with or without sulfite are used as controls. The water samples are incubated at 37° C. for 5 min and then are inoculated with field isolated bacteria at a concentration of approximately 10^7 CFU/mL. The mixtures are then incubated at 37° C. for 4 hours. After that, the viable bacteria in the mixtures is enumerated using a serial dilution method.

[3] = tested on: bacteria in sulfite-containing white water; test: Biocidal efficacy in presence of sulfite in contaminated paper mill white water (1-96 hours); conditions: for Bacterial log10 reduction at time point after biocide addition: about 80 ppm sulfite; for Duration of effectiveness (>3 log10 killing) compared with DBNPA: sulfite-containing white water
Experimental: The same contaminated whitewater samples without biocide are used as controls. The mixtures are incubated at 37° C. with shaking (100 RPM) for 96 hrs. At 1 hr, 3 hrs, 24 hrs, 48 hrs, 72 hrs and 96 hrs time points after the biocide addition, the valid bacteria in the mixtures are enumerated using a serial dilution method and the bacterial log10 reduction is calculated by comparing the valid bacteria number of biocide treated water aliquots to that of controls. Starting from 24 hrs after the sampling, the mixtures are reinoculated with field isolated bacteria at about 10^5 CFU/mL and are supplied with additional sulfite to keep an 80 ppm sulfite concentration.

[4] = 80 ppm sulfite pretreated, 29.7 ppm biocide
[5] = 80 ppm sulfite pretreated, 44.5 ppm biocide
[6] = 80 ppm sulfite pretreated, 66.7 ppm biocide
[7] = 80 ppm sulfite pretreated, 100.0 ppm biocide
[8] = non-sulfite treated, 29.7 ppm biocide
[9] = non-sulfite treated, 44.5 ppm biocide
[10] = non-sulfite treated, 66.7 ppm biocide
[11] = non-sulfite treated, 100.0 ppm biocide
[12] = 25 ppm active, 1 hr, pH 7.6, 37 C
[13] = 25 ppm active, 3 hr, pH 7.6, 37 C
[14] = 25 ppm active, 24 hrs, pH 7.6, 37 C
[15] = 25 ppm active, 48 hrs, reinoculated from 24 hrs
[16] = 25 ppm active, 72 hrs, reinoculated from 24 hrs
[17] = 25 ppm active, 96 hrs, reinoculated from 24 hrs
[18] = 50 ppm active, 1 hr, pH 7.6, 37 C
[19] = 50 ppm active, 3 hr, pH 7.6, 37 C
[20] = 50 ppm active, 24 hrs, pH 7.6, 37 C
[21] = 50 ppm active, 48 hrs, reinoculated from 24 hrs
[22] = 50 ppm active, 72 hrs, reinoculated from 24 hrs
[23] = 50 ppm active, 96 hrs, reinoculated from 24 hrs

Compound	Minimum dosage (ppm, active) required for at least 3 log10 reduction in numbers of bacteria in 4 hours ([1]; approximately 10^7 CFU/mL)	Decrease of efficacy due to sulfite pretreatment (bacterial log10 reduction) ([2]; 29.7 ppm biocide)	Decrease of efficacy due to sulfite pretreatment (bacterial log10 reduction) ([2]; 44.5 ppm biocide)	Decrease of efficacy due to sulfite pretreatment (bacterial log10 reduction) ([2]; 66.7 ppm biocide)	Bacterial log10 reduction after treatment of biocide for 4 hrs [2, 4]	Bacterial log10 reduction after treatment of biocide for 4 hrs [2, 5]	Bacterial log10 reduction after treatment of biocide for 4 hrs [2, 6]	Bacterial log10 reduction after treatment of biocide for 4 hrs [2, 7]	Decrease of efficacy due to sulfite pretreatment (bacterial log10 reduction) ([2]; 100.0 ppm biocide)	Bacterial log10 reduction after treatment of biocide for 4 hrs [2, 8]	Bacterial log10 reduction after treatment of biocide for 4 hrs [2, 9]	Bacterial log10 reduction after treatment of biocide for 4 hrs [2, 10]	Bacterial log10 reduction after treatment of biocide for 4 hrs [2, 11]	Bacterial log10 reduction at time point after biocide addition [3, 12]	Bacterial log10 reduction at time point after biocide addition [3, 13]	Bacterial log10 reduction at time point after biocide addition [3, 14]	Bacterial log10 reduction at time point after biocide addition [3, 15]	Bacterial log10 reduction at time point after biocide addition [3, 16]	Bacterial log10 reduction at time point after biocide addition [3, 17]	Bacterial log10 reduction at time point after biocide addition [3, 18]	other results
O=CCCCC=O [Glutaraldehyde]	163.84 ppm	–	–	–	–	–	–	–	–	–	–	–	–	–	–	–	–	–	–	–	–
NCl [monochloramine]	–	–	–	–	–	–	–	–	–	–	–	–	–	–	–	–	–	–	–	–	Minimum dosage (ppm, active) required for at least 3 log10 reduction in numbers of bacteria in 4 hours ([1]; active expressed as chlorine): 8.00 (chlorine) ppm
NC(=O)C(Br)(Br)C(N)=O [DBMAL, 2,2-Dibromomalonamide]	81.92 ppm	0.7 log10	3.3 log10	2.7 log10	1.0 log10	1.0 log10	2.3 log10	2.3 log10	2.4 log10	1.7 log10	4.3 log10	5.0 log10	4.7 log10	2.5 log10	3.2 log10	4.2 log10	3.7 log10	1.5 log10	1.2 log10	>=4.0 log10	Decrease in efficacy when premixed with 80 ppm sulfite, compared with DBNPA ([2]; premixed with 80 ppm sulfite): much smaller; Bacterial log10 reduction at time point after biocide addition [3, 19]: 3.8 log10; Bacterial log10 reduction at time point after biocide addition [3, 20]: >=4.3 log10; Bacterial log10 reduction at time point after biocide addition [3, 21]: 4.3 log10; Bacterial log10 reduction at time point after biocide addition [3, 22]: 4.2 log10; Bacterial log10 reduction at time point after biocide addition [3, 23]: 3.8 log10; Duration of effectiveness (>3 log10 killing) compared with DBNPA ([3]; same active concentration of 25 ppm): one more day; Duration of effectiveness (>3 log10 killing) compared with DBNPA ([3]; same active concentration of 50 ppm): two more days
CC1(C)C(=O)N(Cl)C(=O)N1Br [BCDMH, 1-Bromo-3-chloro-5,5-dimethylhydantoin]	–	–	–	–	–	–	–	–	–	–	–	–	–	–	–	–	–	–	–	–	Minimum dosage (ppm, active) required for at least 3 log10 reduction in numbers of bacteria in 4 hours ([1]; active ppm measured by available bromine & chlorine (chlorine/bromine)): 71.74 (chlorine/bromine) ppm
N#CC(Br)(Br)C(N)=O [DBNPA, 2,2-Dibromo-3-nitrilopropionamide]	128.00 ppm	>=3.4 log10	>=4.4 log10	>=4.4 log10	1.3 log10	1.3 log10	1.3 log10	2.3 log10	>=3.4 log10	4.7 log10	>=5.7 log10	>=5.7 log10	>=5.7 log10	>=4.0 log10	>=4.0 log10	3.3 log10	1.5 log10	0.3 log10	0 log10	>=4.0 log10	Bacterial log10 reduction at time point after biocide addition [3, 19]: >=4.0 log10; Bacterial log10 reduction at time point after biocide addition [3, 20]: >=4.3 log10; Bacterial log10 reduction at time point after biocide addition [3, 21]: 4.5 log10; Bacterial log10 reduction at time point after biocide addition [3, 22]: 1.0 log10; Bacterial log10 reduction at time point after biocide addition [3, 23]: 0.7 log10
